Laboratory results: patent US12571052B2, “Immunomodulatory RNA” (THE TRUSTEES OF THE UNIVERSITY OF PENNSYLVANIA, priority 2017, dated 2026)
“Also recorded” adds a separate entry of the source.

T1: recombinant RIG-I (Homo sapiens, UniProt O95786)
T1 sequence (O95786 1-925): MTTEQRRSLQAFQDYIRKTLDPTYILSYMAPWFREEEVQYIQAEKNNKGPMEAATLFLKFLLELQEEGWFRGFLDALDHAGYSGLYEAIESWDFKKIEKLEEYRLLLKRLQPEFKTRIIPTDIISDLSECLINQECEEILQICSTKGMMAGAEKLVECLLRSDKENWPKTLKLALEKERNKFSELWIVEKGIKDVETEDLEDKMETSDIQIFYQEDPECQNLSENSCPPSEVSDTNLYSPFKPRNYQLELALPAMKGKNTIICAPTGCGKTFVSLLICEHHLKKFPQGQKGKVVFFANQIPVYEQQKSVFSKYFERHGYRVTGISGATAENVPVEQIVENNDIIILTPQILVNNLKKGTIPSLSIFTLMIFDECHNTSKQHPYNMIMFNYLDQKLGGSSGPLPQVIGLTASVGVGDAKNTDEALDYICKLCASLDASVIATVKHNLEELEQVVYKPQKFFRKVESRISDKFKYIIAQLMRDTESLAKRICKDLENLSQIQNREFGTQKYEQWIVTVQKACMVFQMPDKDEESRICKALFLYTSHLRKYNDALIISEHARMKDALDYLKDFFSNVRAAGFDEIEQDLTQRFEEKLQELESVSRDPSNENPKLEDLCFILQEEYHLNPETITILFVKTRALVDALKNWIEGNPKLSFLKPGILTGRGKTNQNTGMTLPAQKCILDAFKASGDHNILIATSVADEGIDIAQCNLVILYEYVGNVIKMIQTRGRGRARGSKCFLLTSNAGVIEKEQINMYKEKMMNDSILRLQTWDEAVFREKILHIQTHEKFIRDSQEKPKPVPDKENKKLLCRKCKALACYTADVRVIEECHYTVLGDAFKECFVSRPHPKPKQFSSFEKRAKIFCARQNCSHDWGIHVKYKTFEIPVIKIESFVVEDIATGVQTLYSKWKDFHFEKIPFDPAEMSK

B1: SRP9: Recombinant SRP9 protein, GST tag cleaved with TEV protease (protein, UniProt P49458 2-86, looked up)
Signal recognition particle 9 …: PQYQTWEEFSRAAEKLYLADPMKARVVLKYRHSDGNLCVKVTDDLVCLVYKTDQAQDVKKIEKFHSQLMRLMVAKEARNVTMETE

How the values were obtained:
[1] = system: pancreatic ductal adenocarcinoma (PDA) tumor cells; assay: PDA/MEF co-injection, tumor growth under ICB therapy; assay type: in vivo, mice; conditions: BLZ945 with unshielded 7SL RNA, anti-CTLA4 and anti-PD1
Method: CSF1R inhibition in combination with unshielded 7SL RNA sensitizes PDA tumors to ICB therapy (FIGS. 28A-28B). 1×10^5 pancreatic ductal adenocarcinoma (PDA) tumor cells were co-injected with 1×10^5 MEFs (“myc-ER”) or MEFs co-expressing SRP9/14 (“myc-ER/SRP”) treated with 4OHT or EtOH. Mice were then treated with a combination of anti-CTLA4 and anti-PD1 antibodies (FIG. 28A) or a triple combination of anti-CTLA4, anti-PD1, and BLZ945 (FIG. 28B) using treatment schedules outlined in the study shown in FIGS. 27A-27C. Tumor growth was monitored by caliper.

B16-F10 tumor cells [2] = assay: B16-F10/MEF co-implantation, tumor growth and survival under checkpoint blockade; assay type: in vivo, C57BL/6 mice; conditions: BLZ945 every 2 days for 2 weeks, anti-CTLA4 or anti-CTLA4 and anti-PD1, tumors with unshielded 7SL
Method: Wild type (WT) C57BL/6 mice were injected with 5×10^4 B16-F10 tumor cells subcutaneously in the flank with 5×10^4 MYC activated mouse embryonic fibroblasts (MEFs) or MYC activated MEFs co-expressing SRP9/14. MYC activation is inducible with 4-OHT and results in the secretion of exosomes containing unshielded 7SL1 RNA, while co-expression of SRP9/14 ensures the 7SL1 RNA remains relatively shielded, allowing measurement of the stimulatory capacity specifically of the unshielded form (Nabet B Y, et al. Cell. 2017; 170 (2): 352-366.e13). Mice were subsequently treated with the anti-CTLA-4 or anti-PD-1 antibody (or not), and then tumor growth was monitored by caliper. Endpoint criterion was considered a tumor measurement of 1.5 cm in any direction.
Tumors were implanted as described in FIGS. 25A-25B and treated with CSF1R inhibitor BLZ945 (Novartis) every 2 days for 2 weeks starting at day 0 to prevent M2 polarization of infiltrating myeloid cells. Mice were additionally treated with anti-CTLA4 (FIG. 27A) or anti-CTLA4 and anti-PD1 (FIGS. 27B and 27C) on days 5, 8, and 11. Tumor growth was monitored by caliper.

B16-F10 tumor cells [3] = assay: B16-F10/MEF co-implantation, tumor immune populations by flow cytometry; assay type: in vivo, C57BL/6 mice
Method: Mice were implanted with tumors as described FIGS. 25A-25B. Tumors were harvested 13 days later and assessed for infiltration of macrophages or myeloid derived suppressor cells (MDSCs). Macrophages are considered Lin−, F4/80+, and CD11b+ cells. MDSCs are considered Lin−, F4/80−, CD11c−, CD11b+, and Ly6C+ cells. Tumors were treated with anti-CTLA4 blocking antibody (FIG. 26D) as described in FIGS. 25A and 25B, and tumors were harvested at d15 to measure M2 polarization of macrophages as marked by CD206.
Furthermore, mice were implanted with the same tumors and subsequently treated with the CSF1R inhibitor BLZ945. Polarization of macrophages and frequency of CD103+DCs were tested.
In addition, mice were implanted with tumors and treated with anti-CTLA4+/−CSF1Ri BLZ945. Tumors were harvested 13 days later and immune populations were assessed using an unbiased clustering of flow cytometry data.
Mice were implanted with B16-F10 tumor cells mixed 1:1 with MEFs or MEFs co-expressing SRP9/14 (FIG. 35B). Tumors were harvested 2 weeks post-injection and analyzed for immune cell populations. Unshielded RN7SL1 increased the frequency of dendritic cells, the percentage of CD103+ dendritic cells, the percentage of CD69+CD8+ T cells, and the percentage of PD1+CD8+ T cells in tumors (FIG. 35C). […] Without wishing to be bound by theory, a CSF1R inhibitor blocks M2 polarization and may synergize with unshielded RN7SL1.

recombinant RIG-I = biological target: T1, recombinant RIG-I; assay: RIG-I ATPase assay (ATP hydrolysis); assay type: biochemical
Method: RIG-I ATPase Assays. RIG-I ATPase assays were performed as previously described (Devarkar et al. (2016) Proc. Natl. Acad. Sci. 113, 596-601). In brief, increasing amounts of RNA (10-60 nM) were added to a constant quantity of RIG-I (5 nM) in the presence of 1 mM ATP. ATP hydrolysis was measured with the EnzChek Phosphate Assay Kit (ThermoFisher) after 60-90 minutes at 37° C. ATP hydrolysis was then measured by absorbance of 360 nm compared to background. A 19-mer 5′triphosphate dsRNA (Invivogen) and DVG396 were used as positive controls and a 19-mer 5′OH dsRNA (Invivogen) and an in vitro transcribed 300 bp ssRNA stretch of GAPDH (GAPDH300) were used as negative controls.

ATP hydrolysis by recombinant RIG-I after addition of SRP9 (recombinant RIG-I; SRP9 added to DVG396 or unrelated 5'ppp or 5'OH control RNAs)	Molecule	sensitization of PDA tumors to ICB therapy [1]	response to checkpoint blockade with CSF1R inhibition (B16-F10 tumor cells [2])	response to checkpoint blockade with CSF1R inhibition (B16-F10 tumor cells [2]; listed as small molecule inhibitor of CSF1R)	activated CD4+ T cells in tumors (B16-F10 tumor cells [3]; anti-CTLA4 +/- CSF1Ri, high unshielded 7SL, 13 days)	frequency of M2 macrophages in the tumor (B16-F10 tumor cells [3]; high levels of unshielded 7SL RNA)	infiltration of cross-presenting CD103+ DCs (B16-F10 tumor cells [3]; high levels of unshielded 7SL RNA, CSF1R inhibition)	ATP hydrolysis by recombinant RIG-I after addition of SRP9 (recombinant RIG-I; SRP9 added to in vitro transcribed RN7SL1)
	CNC(=O)c1cc(Oc2ccc3nc(N[C@@H]4CCCC[C@H]4O)sc3c2)ccn1 [BLZ945]	sensitizes PDA tumors to anti-PD-1 and anti-CTLA-4 antibody therapies	allows tumors with high levels of unshielded 7SL to respond more robustly to checkpoint blockade; also recorded: enhanced the anti-tumor activity of an anti-PD1 antibody and an anti-CTLA-4 antibody	led to improved response in tumors with high levels of unshielded 7SL1	markedly increased	decreased the frequency of M2 macrophages found in the tumor	improving the infiltration of cross-presenting CD103+DCs	
did not influence	B1							partially inhibited ATP hydrolysis by recombinant RIG-I
